Source: ChEMBL document CHEMBL1201862, “PubChem BioAssay data set” (2004)
Active and inactive are the calls of the source. Rule as the data show it: actives have a measured IC50 and inactives only a lower limit.

Molecular target: Envelope glycoprotein gp160 (Human immunodeficiency virus 1, UniProt Q6QLK5)
Experiment: cell-free HIV fusion peptide-binding blockers – biochemical, uHTS, fluorescence dequenching, […] (AID 1986)

Sequence of Envelope glycoprotein gp160 (Q6QLK5 whole entry, the tested form may be a part): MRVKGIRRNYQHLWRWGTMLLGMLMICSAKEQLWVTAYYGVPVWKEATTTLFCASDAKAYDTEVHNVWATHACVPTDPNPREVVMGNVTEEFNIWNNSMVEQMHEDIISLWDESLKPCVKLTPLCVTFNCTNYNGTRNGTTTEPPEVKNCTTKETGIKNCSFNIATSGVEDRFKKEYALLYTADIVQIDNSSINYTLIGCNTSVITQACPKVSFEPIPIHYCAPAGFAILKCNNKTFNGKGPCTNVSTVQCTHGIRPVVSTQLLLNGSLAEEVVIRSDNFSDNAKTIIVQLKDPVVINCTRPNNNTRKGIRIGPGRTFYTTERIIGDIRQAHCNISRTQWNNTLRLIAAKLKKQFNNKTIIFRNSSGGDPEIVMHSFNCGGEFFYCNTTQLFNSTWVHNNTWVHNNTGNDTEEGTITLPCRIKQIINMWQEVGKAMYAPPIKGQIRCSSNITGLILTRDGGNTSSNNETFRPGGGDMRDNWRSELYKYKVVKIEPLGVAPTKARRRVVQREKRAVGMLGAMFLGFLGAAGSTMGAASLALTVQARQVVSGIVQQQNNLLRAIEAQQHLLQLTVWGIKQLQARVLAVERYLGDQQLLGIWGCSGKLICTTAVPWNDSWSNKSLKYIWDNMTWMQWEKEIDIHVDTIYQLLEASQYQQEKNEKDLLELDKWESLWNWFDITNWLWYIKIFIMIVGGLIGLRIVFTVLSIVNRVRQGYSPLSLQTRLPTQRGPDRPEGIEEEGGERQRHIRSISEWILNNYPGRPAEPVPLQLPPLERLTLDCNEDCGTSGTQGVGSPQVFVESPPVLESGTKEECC

Row | Structure (SMILES) | IC50
1 | COc1cc(/C=C2\SC(NS(=O)(=O)c3ccc(C)cc3)=NC2=O)c([N+](=O)[O-])cc1OC | 17.1 µM (active)
2 | O=C(O)CCn1cc(/C=C/C(=O)c2ccc(Cl)cc2)c(-c2cccc(Br)c2)n1 | 28 µM (active)
